biological target: USP30 (Homo sapiens (Human), UniProt Q70CQ3); assay: USP30 biochemical IC50 assay (fluorescence polarisation); conditions: enzyme and compound incubated 30 min at room temp; TAMRA labelled peptide-ubiquitin substrate 50 nM; read after 2 hr incubation; read-out: IC50 range
Experimental: USP30 Biochemical IC50 Assay
Dilution plates were prepared at 21 times the final concentration ([…] for a final concentration of 100 μM) in 50% DMSO in a 96-well polypropylene V-bottom plate (Greiner #651201). A typical 8-point dilution series to be 100, 30, 10, 3, 1, 0.3, 0.1, […].
Reactions were performed in duplicate in black 384 well plates (small volume, Greiner 784076) in a final reaction volume of 21 μl. Either 1 μl of 50% DMSO or diluted compound was added to the plate. USP30 was diluted in reaction buffer (40 mM Tris, pH 7.5, 0.005% Tween 20, 0.5 mg/ml BSA, 5 mM beta-mercaptoethanol) to the equivalent of 0.05 µl/well and 10 μl of diluted USP30 was added to the compound. Enzyme and compound were incubated for 30 min at room temp. Reactions were initiated by the addition of 50 nM of TAMRA labelled peptide linked to ubiquitin via an iso-peptide bond as fluorescence polarisation substrate. Reactions were read immediately after addition of substrate and following a 2 hr incubation at room temperature. Readings were performed on a Pherastar Plus (BMG Labtech). λ Excitation 540 nm; λ Emission 590 nm.

Sequence of USP30 (Q70CQ3 57-517): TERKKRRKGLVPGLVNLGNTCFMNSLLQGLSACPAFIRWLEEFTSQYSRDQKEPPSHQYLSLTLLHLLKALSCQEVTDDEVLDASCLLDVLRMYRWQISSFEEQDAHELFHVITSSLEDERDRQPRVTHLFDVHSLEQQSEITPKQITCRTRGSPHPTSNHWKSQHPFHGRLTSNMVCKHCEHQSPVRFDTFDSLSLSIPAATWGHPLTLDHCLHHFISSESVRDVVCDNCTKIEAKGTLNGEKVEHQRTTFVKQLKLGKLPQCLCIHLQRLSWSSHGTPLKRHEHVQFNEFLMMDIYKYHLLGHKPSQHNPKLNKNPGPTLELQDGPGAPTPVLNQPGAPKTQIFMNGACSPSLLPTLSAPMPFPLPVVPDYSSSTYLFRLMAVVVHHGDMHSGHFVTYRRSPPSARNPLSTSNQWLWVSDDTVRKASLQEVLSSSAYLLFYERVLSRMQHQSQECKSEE

First: CN1CCN(C(=O)c2ccc(-c3ccc4c(c3)CCN4C(=O)C3(F)CCN(C#N)C3)cc2)CC1 (stereo not shown) [Example 38, 3-Fluoro-3-(5-(4-(4-methylpiperazine-1-carbonyl)phenyl)indoline-1-carbonyl)pyrrolidine-1-carbonitrile]
Second: N#CN1CC[C@@](F)(C(=O)N2CCc3cc(-c4ccccc4)ccc32)C1 [Example 53, (S)-3-Fluoro-3-(5-phenylindoline-1-carbonyl)pyrrolidine-1-carbonitrile]
The IC50 of the first is higher: 1000 to 10000 nM for the first, 100 to 1000 nM for the second.

`Cn1ncc2cc(-c3ccc4c(c3)CCN4C(=O)C3(F)CCN(C#N)C3)ccc21` (stereo not shown) [Example 39, 3-Fluoro-3-(5-(1-methyl-1H-indazol-5-yl)indoline-1-carbonyl)pyrrolidine-1-carbonitrile] and `COc1ccc(-c2ccc3c(c2)CCN3C(=O)C2(F)CCN(C#N)C2)cn1` (stereo not shown) [Example 43, 3-Fluoro-3-(5-(6-methoxypyridin-3-yl)indoline-1-carbonyl)pyrrolidine-1-carbonitrile] fall in the same range of IC50: 100 to 1000 nM for the first, 100 to 1000 nM for the second.

Compared with `Cc1ccc(F)c(-c2ccc3c(c2)CCN3C(=O)C2(F)CCN(C#N)C2)c1` (stereo not shown) [Example 40, 3-Fluoro-3-(5-(2-fluoro-5-methylphenyl)indoline-1-carbonyl)pyrrolidine-1-carbonitrile], `N#CN1CC[C@](F)(C(=O)N2CCc3cc(-c4ccccc4)ccc32)C1` [Example 54, (R)-3-Fluoro-3-(5-phenylindoline-1-carbonyl)pyrrolidine-1-carbonitrile] is higher in IC50: < 100 nM for the first, 100 to 1000 nM for the second. The first is the more potent here.

`Cc1ccc2[nH]ncc2c1-c1ccc2c(c1)CCN2C(=O)C1(F)CCN(C#N)C1` (stereo not shown) [Example 41, 3-Fluoro-3-(5-(5-methyl-1H-indazol-4-yl)indoline-1-carbonyl)pyrrolidine-1-carbonitrile] and `N#CN1CCC(F)(C(=O)N2CCc3cc(-c4cccc(NS(=O)(=O)C5CC5)c4)ccc32)C1` (stereo not shown) [Example 42, N-(3-(1-(1-Cyano-3-fluoropyrrolidine-3-carbonyl)indolin-5-yl)phenyl)cyclopropanesulfonamide] fall in the same range of IC50: 100 to 1000 nM for the first, 100 to 1000 nM for the second.

First: CCN(C(=O)[C@@H]1CCN(C#N)C1)c1ccc(-c2ccc(C#N)cc2)cn1 [Example 44, (R)-1-Cyano-N-(5-(4-cyanophenyl)pyridin-2-yl)-N-ethylpyrrolidine-3-carboxamide]
Second: CN(Cc1csc(-c2ccccc2)n1)C(=O)C1CCN(C#N)C1 (stereo not shown) [Example 47, 1-Cyano-N-methyl-N-((2-phenylthiazol-4-yl)methyl)pyrrolidine-3-carboxamide]
The IC50 of the first is higher: 1000 to 10000 nM for the first, 100 to 1000 nM for the second.

`CN(Cc1nc2ccccc2s1)C(=O)C1CCN(C#N)C1` (stereo not shown) [Example 45, N-(Benzo[d]thiazol-2-ylmethyl)-1-cyano-N-methylpyrrolidine-3-carboxamide] and `CN(Cc1cc(-c2ccccc2)no1)C(=O)C1CCN(C#N)C1` (stereo not shown) [Example 46, 1-Cyano-N-methyl-N-((3-phenylisoxazol-5-yl)methyl)pyrrolidine-3-carboxamide] fall in the same range of IC50: 1000 to 10000 nM for the first, 1000 to 10000 nM for the second.

`N#CN1CCC2(CCN(c3cccc(-c4ccccc4)c3)C2=O)C1` (stereo not shown) [Example 49, 7-([1,1′-Biphenyl]-3-yl)-6-oxo-2,7-diazaspiro[4,4]nonane-2-carbonitrile] and `N#CN1CC[C@@](F)(C(=O)N2CCc3cc(-c4cccc(Cl)c4)cnc32)C1` [Example 55, (S)-3-(5-(3-Chlorophenyl)-2,3-dihydro-1H-pyrrolo[2,3-b]pyridine-1-carbonyl)-3-fluoropyrrolidine-1-carbonitrile] fall in the same range of IC50: 100 to 1000 nM for the first, 100 to 1000 nM for the second.

First: CCc1cccc(-c2cccc3c2CCN3C(=O)[C@@H]2CCN(C#N)C2)c1 [Example 50, (R)-3-(4-(3-Ethylphenyl)indoline-1-carbonyl)pyrrolidine-1-carbonitrile]
Second: N#CN1CCC(C(=O)N2CCc3nc(-c4ccccc4)ccc32)C1 (stereo not shown) [Example 51, 3-(5-Phenyl-2,3-dihydro-1H-pyrrolo[3,2-b]pyridine-1-carbonyl)pyrrolidine-1-carbonitrile]
The IC50 of the first is lower: 100 to 1000 nM for the first, 1000 to 10000 nM for the second.

Source: patent publication US10640498B2, “Compounds” (MISSION THERAPEUTICS LIMITED, priority 2016, dated 2020)
